Results from paper PMC4051630, “A Comparison of Protein Kinases Inhibitor Screening Methods Using Both Enzymatic Activity and Binding Affinity Determination” (PLoS ONE, 2014).

Tests used:
Assay in all cases: Differential Scanning Fluorimetry (DSF) Tm shift
Format in all cases: binding
FES Catalytic Domain = molecular target: T1, FES Catalytic Domain (Homo sapiens, UniProt P07332); conditions: 2 µM protein, 10 µM inhibitor, average of 3 experiments, each in duplicate
T1 construct: For all of them, we expressed and purified the catalytic domain separately; His-tag; made in house; host or cells: Escherichia coli

CDK2 + Cyclin E = molecular target: T2, CDK2 + Cyclin E (Homo sapiens, UniProt P24941); conditions: CDK2 + Cyclin E; 2 µM protein, 10 µM inhibitor; average of 3 experiments, each in duplicate
T2 construct: CDK2 (P24941); 1–299; His-tag; made in house; host or cells: Escherichia coli

PAK7 Catalytic Domain = molecular target: T3, PAK7 Catalytic Domain (Homo sapiens, UniProt Q9P286); conditions: 2 µM protein, 10 µM inhibitor, average of 3 experiments, each in duplicate
T3 construct: For all of them, we expressed and purified the catalytic domain separately; His-tag; made in house; host or cells: Escherichia coli

CHK2 Catalytic Domain = molecular target: T4, CHK2 Catalytic Domain (Homo sapiens, UniProt O96017); conditions: 2 µM protein, 10 µM inhibitor, average of 3 experiments, each in duplicate
T4 construct: For all of them, we expressed and purified the catalytic domain separately; His-tag; made in house; host or cells: Escherichia coli

FAK2 Catalytic Domain = molecular target: T5, FAK2 Catalytic Domain (Homo sapiens, UniProt Q14289); conditions: 2 µM protein, 10 µM inhibitor, average of 3 experiments, each in duplicate
T5 construct: For all of them, we expressed and purified the catalytic domain separately; His-tag; made in house; host or cells: Escherichia coli

DMPK Catalytic Domain = molecular target: T6, DMPK Catalytic Domain (Homo sapiens, UniProt Q09013); conditions: 2 µM protein, 10 µM inhibitor, average of 3 experiments, each in duplicate
T6 construct: For all of them, we expressed and purified the catalytic domain separately; His-tag; made in house; host or cells: Escherichia coli
T6 sequence (Q09013 71-339 limits assumed): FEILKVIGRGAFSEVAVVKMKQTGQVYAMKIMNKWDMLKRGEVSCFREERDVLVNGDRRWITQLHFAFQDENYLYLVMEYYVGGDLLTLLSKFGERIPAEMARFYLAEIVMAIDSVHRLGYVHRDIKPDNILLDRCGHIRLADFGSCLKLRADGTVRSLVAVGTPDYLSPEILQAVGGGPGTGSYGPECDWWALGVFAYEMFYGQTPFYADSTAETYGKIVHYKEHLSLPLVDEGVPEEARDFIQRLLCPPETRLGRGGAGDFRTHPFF

STK3 Catalytic Domain = molecular target: T7, STK3 Catalytic Domain (Homo sapiens, UniProt Q13188); conditions: 2 µM protein, 10 µM inhibitor, average of 3 experiments, each in duplicate
T7 construct: For all of them, we expressed and purified the catalytic domain separately; His-tag; made in house; host or cells: Escherichia coli
T7 sequence (Q13188 27-278 limits assumed): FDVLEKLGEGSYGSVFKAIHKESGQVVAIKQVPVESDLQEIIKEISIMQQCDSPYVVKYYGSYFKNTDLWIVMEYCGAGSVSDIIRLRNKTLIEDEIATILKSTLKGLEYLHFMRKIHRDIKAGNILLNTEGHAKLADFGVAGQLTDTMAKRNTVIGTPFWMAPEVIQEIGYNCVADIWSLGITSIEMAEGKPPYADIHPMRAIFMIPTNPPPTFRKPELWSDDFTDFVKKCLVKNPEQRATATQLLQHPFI

CDK2 + Cyclin A = molecular target: T8, CDK2 + Cyclin A (Homo sapiens, UniProt P24941); conditions: CDK2 + Cyclin A; 2 µM protein, 10 µM inhibitor; average of 3 experiments, each in duplicate
T8 construct: CDK2 (P24941); 1–299; His-tag; made in house; host or cells: Escherichia coli

PAK4 Catalytic Domain = molecular target: T9, PAK4 Catalytic Domain (Homo sapiens, UniProt O96013); conditions: 2 µM protein, 10 µM inhibitor, average of 3 experiments, each in duplicate
T9 construct: For all of them, we expressed and purified the catalytic domain separately; His-tag; made in house; host or cells: Escherichia coli

[1] = molecular target: T10, PAK4 Catalytic Domain+PBD (Homo sapiens, UniProt O96013); conditions: 2 µM protein, 10 µM inhibitor, average of 3 experiments, each in duplicate
T10 construct: for 8, we also made a longer version containing one or more additional domains; His-tag; made in house; host or cells: Escherichia coli

[2] = molecular target: T11, STK3 Catalytic domain+SARAH (Homo sapiens, UniProt Q13188); conditions: 2 µM protein, 10 µM inhibitor, average of 3 experiments, each in duplicate
T11 construct: for 8, we also made a longer version containing one or more additional domains; His-tag; made in house; host or cells: Escherichia coli
T11 sequence (Q13188 1-491): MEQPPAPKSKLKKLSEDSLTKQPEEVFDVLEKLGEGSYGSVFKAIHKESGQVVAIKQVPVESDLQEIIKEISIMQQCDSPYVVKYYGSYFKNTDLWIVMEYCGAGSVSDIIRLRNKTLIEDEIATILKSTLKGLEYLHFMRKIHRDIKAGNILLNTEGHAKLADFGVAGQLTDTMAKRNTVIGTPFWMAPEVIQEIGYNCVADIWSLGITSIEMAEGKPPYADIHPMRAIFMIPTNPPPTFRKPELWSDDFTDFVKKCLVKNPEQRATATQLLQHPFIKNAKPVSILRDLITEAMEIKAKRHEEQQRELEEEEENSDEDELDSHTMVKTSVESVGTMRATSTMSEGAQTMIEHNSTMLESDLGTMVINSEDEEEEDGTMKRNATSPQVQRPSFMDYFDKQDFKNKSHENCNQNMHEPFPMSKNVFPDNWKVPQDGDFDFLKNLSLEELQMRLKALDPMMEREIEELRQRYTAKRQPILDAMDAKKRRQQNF

FES Catalytic Domain+SH2 = molecular target: T12, FES Catalytic Domain+SH2 (Homo sapiens, UniProt P07332); conditions: 2 µM protein, 10 µM inhibitor, average of 3 experiments, each in duplicate
T12 construct: for 8, we also made a longer version containing one or more additional domains; His-tag; made in house; host or cells: Escherichia coli

AKT3 Catalytic Domain = molecular target: T13, AKT3 Catalytic Domain (Homo sapiens, UniProt Q9Y243); conditions: 2 µM protein, 10 µM inhibitor, average of 3 experiments, each in duplicate
T13 construct: AKT3 (Q9Y243); CD; His-tag; made in house; host or cells: Escherichia coli

[3] = molecular target: SRC Catalytic Domain+SH2+SH3 (Homo sapiens, UniProt P12931); conditions: 2 µM protein, 10 µM inhibitor, average of 3 experiments, each in duplicate
Chain of SRC Catalytic Domain+SH2+SH3 (P12931 84-523 limits assumed): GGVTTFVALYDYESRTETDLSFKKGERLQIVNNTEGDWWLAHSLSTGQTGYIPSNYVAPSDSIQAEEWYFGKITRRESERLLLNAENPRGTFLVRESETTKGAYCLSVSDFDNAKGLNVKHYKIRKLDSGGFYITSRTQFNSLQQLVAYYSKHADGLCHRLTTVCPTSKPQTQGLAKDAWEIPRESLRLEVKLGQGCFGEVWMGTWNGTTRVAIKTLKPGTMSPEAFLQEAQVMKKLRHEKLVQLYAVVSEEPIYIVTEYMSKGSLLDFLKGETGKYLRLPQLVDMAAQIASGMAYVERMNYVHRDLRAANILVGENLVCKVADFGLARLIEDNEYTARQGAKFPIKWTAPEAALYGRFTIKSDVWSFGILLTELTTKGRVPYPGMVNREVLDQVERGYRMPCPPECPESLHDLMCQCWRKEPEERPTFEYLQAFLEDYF

T13 sequence (Q9Y243 122-479): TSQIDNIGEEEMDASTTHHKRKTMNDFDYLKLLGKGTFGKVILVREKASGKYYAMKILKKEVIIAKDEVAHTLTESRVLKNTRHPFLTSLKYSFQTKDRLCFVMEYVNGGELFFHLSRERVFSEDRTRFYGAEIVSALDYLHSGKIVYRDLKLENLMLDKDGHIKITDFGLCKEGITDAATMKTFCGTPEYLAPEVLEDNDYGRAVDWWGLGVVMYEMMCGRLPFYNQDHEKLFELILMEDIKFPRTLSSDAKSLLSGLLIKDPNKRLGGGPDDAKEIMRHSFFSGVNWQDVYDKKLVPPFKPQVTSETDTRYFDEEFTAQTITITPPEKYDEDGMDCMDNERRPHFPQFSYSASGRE
T12 sequence (P07332 448-822 limits assumed): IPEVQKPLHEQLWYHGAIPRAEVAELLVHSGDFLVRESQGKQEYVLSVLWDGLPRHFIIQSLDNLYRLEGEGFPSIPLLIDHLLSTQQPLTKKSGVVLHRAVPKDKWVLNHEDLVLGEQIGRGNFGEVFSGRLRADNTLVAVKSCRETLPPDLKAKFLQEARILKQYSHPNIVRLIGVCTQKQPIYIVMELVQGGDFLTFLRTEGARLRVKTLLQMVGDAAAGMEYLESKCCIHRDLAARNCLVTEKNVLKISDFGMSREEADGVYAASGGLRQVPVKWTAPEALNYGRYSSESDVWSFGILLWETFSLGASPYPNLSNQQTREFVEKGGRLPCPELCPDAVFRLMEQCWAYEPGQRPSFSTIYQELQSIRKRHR
T5 sequence (Q14289 425-683 limits assumed): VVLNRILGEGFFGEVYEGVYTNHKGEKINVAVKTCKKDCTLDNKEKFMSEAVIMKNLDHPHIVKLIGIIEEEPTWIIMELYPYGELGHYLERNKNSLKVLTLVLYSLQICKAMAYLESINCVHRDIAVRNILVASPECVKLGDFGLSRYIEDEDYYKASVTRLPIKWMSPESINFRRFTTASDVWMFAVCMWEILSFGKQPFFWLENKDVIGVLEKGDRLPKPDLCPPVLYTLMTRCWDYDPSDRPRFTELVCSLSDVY
T10 sequence (O96013 whole entry, the tested form may be a part): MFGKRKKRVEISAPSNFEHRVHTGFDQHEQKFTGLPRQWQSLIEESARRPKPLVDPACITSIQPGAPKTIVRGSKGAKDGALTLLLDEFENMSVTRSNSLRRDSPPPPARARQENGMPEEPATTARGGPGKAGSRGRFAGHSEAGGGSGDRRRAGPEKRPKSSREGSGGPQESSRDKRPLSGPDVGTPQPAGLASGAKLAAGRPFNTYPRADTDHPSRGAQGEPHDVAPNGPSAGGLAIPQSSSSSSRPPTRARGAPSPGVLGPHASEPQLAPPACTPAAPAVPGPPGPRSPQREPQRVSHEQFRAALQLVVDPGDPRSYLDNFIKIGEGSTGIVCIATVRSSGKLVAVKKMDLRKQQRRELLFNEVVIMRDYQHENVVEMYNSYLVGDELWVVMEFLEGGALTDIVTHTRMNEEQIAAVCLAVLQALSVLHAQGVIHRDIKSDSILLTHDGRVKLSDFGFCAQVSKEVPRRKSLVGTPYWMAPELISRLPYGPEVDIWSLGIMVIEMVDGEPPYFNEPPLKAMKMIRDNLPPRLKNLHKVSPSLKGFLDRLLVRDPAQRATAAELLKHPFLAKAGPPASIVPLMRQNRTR
T3 sequence (Q9P286 449-700 limits assumed): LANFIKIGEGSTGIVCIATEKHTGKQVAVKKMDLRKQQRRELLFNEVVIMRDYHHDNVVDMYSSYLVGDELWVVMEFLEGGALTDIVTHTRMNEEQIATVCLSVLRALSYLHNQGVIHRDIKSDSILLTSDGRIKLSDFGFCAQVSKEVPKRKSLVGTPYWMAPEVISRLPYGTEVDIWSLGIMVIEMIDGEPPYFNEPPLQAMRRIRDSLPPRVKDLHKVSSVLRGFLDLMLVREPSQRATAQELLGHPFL
T4 sequence (O96017 220-486 limits assumed): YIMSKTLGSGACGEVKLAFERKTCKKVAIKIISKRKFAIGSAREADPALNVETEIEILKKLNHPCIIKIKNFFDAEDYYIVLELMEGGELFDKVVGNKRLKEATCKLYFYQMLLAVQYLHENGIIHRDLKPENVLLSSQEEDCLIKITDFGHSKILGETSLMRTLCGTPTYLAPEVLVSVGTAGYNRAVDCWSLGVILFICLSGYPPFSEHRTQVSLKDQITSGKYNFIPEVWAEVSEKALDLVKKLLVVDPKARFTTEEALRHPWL
T1 sequence (P07332 561-822 limits assumed): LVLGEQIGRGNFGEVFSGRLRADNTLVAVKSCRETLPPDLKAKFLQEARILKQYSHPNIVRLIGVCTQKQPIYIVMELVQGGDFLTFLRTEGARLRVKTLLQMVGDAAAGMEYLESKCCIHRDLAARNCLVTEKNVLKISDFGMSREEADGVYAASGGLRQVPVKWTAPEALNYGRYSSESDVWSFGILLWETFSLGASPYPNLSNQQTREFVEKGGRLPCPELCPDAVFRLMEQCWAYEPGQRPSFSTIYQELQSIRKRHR
T9 sequence (O96013 321-572 limits assumed): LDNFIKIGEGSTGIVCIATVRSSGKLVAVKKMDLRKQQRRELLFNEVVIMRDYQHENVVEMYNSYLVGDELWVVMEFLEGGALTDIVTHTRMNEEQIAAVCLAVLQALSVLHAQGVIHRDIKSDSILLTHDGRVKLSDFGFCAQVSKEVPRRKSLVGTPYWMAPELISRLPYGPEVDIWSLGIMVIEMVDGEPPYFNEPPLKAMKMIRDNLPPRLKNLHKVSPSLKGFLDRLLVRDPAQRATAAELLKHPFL

| Melting temperature (Tm) shift (FES Catalytic Domain) | Melting temperature (Tm) shift (CDK2 + Cyclin E) | Melting temperature (Tm) shift (PAK7 Catalytic Domain) | Melting temperature (Tm) shift (CHK2 Catalytic Domain) | Melting temperature (Tm) shift (FAK2 Catalytic Domain) | Melting temperature (Tm) shift (DMPK Catalytic Domain) | Melting temperature (Tm) shift (STK3 Catalytic Domain) | Melting temperature (Tm) shift (CDK2 + Cyclin A) | Melting temperature (Tm) shift (PAK4 Catalytic Domain) | Melting temperature (Tm) shift [1] | Melting temperature (Tm) shift [2] | Melting temperature (Tm) shift (FES Catalytic Domain+SH2) | Melting temperature (Tm) shift (AKT3 Catalytic Domain) | Compound | Melting temperature (Tm) shift [3] |
| --- | --- | --- | --- | --- | --- | --- | --- | --- | --- | --- | --- | --- | --- | --- |
| 0.0 degrees Celcius | 0.0 degrees Celcius | 0.0 degrees Celcius | 0.0 degrees Celcius | 0.1 degrees Celcius | 0.2 degrees Celcius | 0.0 degrees Celcius | 0.0 degrees Celcius |  |  |  |  |  | CCN1/C(=C/C(C)=O)Sc2ccc(OC)cc21 [Cdc2-Like Kinase Inhibitor, TG003] |  |
|  | 0.7 degrees Celcius |  |  |  | 0.8 degrees Celcius |  |  | 0.7 degrees Celcius | 0.4 degrees Celcius |  |  |  | O=C1NC(=O)c2c1c1c3ccccc3[nH]c1c1[nH]c3cc(Br)ccc3c21 [Cdk4 Inhibitor] |  |
| 1.1 degrees Celcius | 2.0 degrees Celcius | 1.1 degrees Celcius | 0.8 degrees Celcius | 0.0 degrees Celcius | 0.3 degrees Celcius | 0.3 degrees Celcius | 3.6 degrees Celcius | 1.4 degrees Celcius | 3.9 degrees Celcius | 0.4 degrees Celcius | 0.2 degrees Celcius |  | CC(C)n1cnc2c(NCc3ccccc3O)nc(NCCCO)nc21 [Cdk Inhibitor, p35] |  |
| 0.6 degrees Celcius | 5.5 degrees Celcius | 2.0 degrees Celcius | 0.6 degrees Celcius | 0.5 degrees Celcius | 1.3 degrees Celcius | 0.8 degrees Celcius | 7.5 degrees Celcius | 1.9 degrees Celcius | 1.1 degrees Celcius | 0.2 degrees Celcius | 0.1 degrees Celcius | 0.0 degrees Celcius | CC(C)c1nn(-c2c(Cl)cccc2Cl)c2nc(Cc3ccc(OCCO)cc3)[nH]c(=O)c12 [Cdk/Crk Inhibitor] |  |
| 1.6 degrees Celcius | 0.2 degrees Celcius | 0.2 degrees Celcius | 4.5 degrees Celcius | 0.8 degrees Celcius | 0.5 degrees Celcius | 2.6 degrees Celcius | 0.1 degrees Celcius | 0.4 degrees Celcius |  | 1.3 degrees Celcius | 0.5 degrees Celcius | 2.9 degrees Celcius | O=C1NC(=O)c2c1c1c3ccccc3[nH]c1n1cncc21 [Isogranulatimide] |  |
| 2.6 degrees Celcius | 0.3 degrees Celcius | 0.7 degrees Celcius | 5.2 degrees Celcius | 1.0 degrees Celcius | 1.4 degrees Celcius | 2.0 degrees Celcius | 1.2 degrees Celcius | 1.1 degrees Celcius | 1.0 degrees Celcius | 1.3 degrees Celcius | 0.9 degrees Celcius | 0.1 degrees Celcius | O=C1c2ccccc2-c2n[nH]c3cccc1c23 [JNK Inhibitor II] |  |
| 0.0 degrees Celcius | 0.4 degrees Celcius |  | 0.6 degrees Celcius |  |  |  | 0.1 degrees Celcius |  |  | 0.0 degrees Celcius |  | 3.1 degrees Celcius | O=C1c2ccccc2-c2nc3nnnn3nc21 [PDK1/Akt/Flt Dual Pathway Inhibitor] |  |
| 0.0 degrees Celcius | 0.1 degrees Celcius |  | 0.1 degrees Celcius | 0.0 degrees Celcius | 0.3 degrees Celcius | 0.2 degrees Celcius |  |  |  |  |  | 0.0 degrees Celcius | O=C1NC(=O)C(=Cc2ccc3c(c2)OCO3)S1 [PI 3-Kγ Inhibitor VII] |  |

| Compound | Melting temperature (Tm) shift (FES Catalytic Domain) | Melting temperature (Tm) shift (CDK2 + Cyclin E) | Melting temperature (Tm) shift (PAK7 Catalytic Domain) | Melting temperature (Tm) shift (CHK2 Catalytic Domain) | Melting temperature (Tm) shift (FAK2 Catalytic Domain) | Melting temperature (Tm) shift (DMPK Catalytic Domain) | Melting temperature (Tm) shift (STK3 Catalytic Domain) | Melting temperature (Tm) shift (CDK2 + Cyclin A) | Melting temperature (Tm) shift (PAK4 Catalytic Domain) | Melting temperature (Tm) shift [1] | Melting temperature (Tm) shift [2] | Melting temperature (Tm) shift (FES Catalytic Domain+SH2) | Melting temperature (Tm) shift (AKT3 Catalytic Domain) | Melting temperature (Tm) shift [3] |
| --- | --- | --- | --- | --- | --- | --- | --- | --- | --- | --- | --- | --- | --- | --- |
| CC(C)(C)c1nc2c3cc[nH]c(=O)c3c3cc(F)ccc3c2[nH]1 [JAK Inhibitor I] | 0.1 degrees Celcius | 0.0 degrees Celcius | 0.2 degrees Celcius | 8.8 degrees Celcius | 3.0 degrees Celcius |  | 2.1 degrees Celcius | 0.0 degrees Celcius | 0.2 degrees Celcius | 0.2 degrees Celcius | 3.2 degrees Celcius | 0.1 degrees Celcius |  |  |
| O=C1Nc2ccc(Cl)cc2C1=Cc1cc(Cl)c(O)c(Cl)c1 [PKR Inhibitor, Negative Control] | 0.4 degrees Celcius | 0.6 degrees Celcius | 0.3 degrees Celcius | 3.9 degrees Celcius |  | 3.2 degrees Celcius | 1.2 degrees Celcius |  | 0.9 degrees Celcius | 1.5 degrees Celcius | 2.1 degrees Celcius | 0.5 degrees Celcius |  |  |
| O=c1c(O)c(-c2ccc(O)c(O)c2)oc2cc(O)c(O)c(O)c12 [Quercetagetin] | 0.1 degrees Celcius | 0.7 degrees Celcius | 0.1 degrees Celcius | 1.1 degrees Celcius | 0.2 degrees Celcius |  | 0.2 degrees Celcius | 0.2 degrees Celcius | 0.0 degrees Celcius | 0.3 degrees Celcius | 0.5 degrees Celcius | 0.1 degrees Celcius | 2.5 degrees Celcius | 0.0 degrees Celcius |
